Here are results for five compounds from publication PMC6985712 (Antimicrobial Agents and Chemotherapy, 2020).

SMILES strings stand for the structures. Where two headings read alike, the source gives them in different places.

Assay [1] concerns the target T1, KPC-2 (Klebsiella pneumoniae, UniProt Q9F663). The assay can be described thus: k2/K inactivation constant, reporter substrate method. The format is biochemical. As to the method:
Inactivation kinetic parameters were determined by using the reporter substrate method for the slow tight-binding inhibitor kinetic scheme ([38]). E + I ↔K EI ↔k−2k2 EI*
(§1) Protein was quickly mixed with 100 μM nitrocefin and various concentrations of BLI in reaction buffer, and the absorbance at 490 nm was measured immediately every 2 s for 180 s on a SpectraMax plate reader (Molecular Devices, San Jose, CA) at 37°C. The resulting progression curves of OD490 versus time at various BLI concentrations were imported into Prism software (GraphPad, San Diego, CA), and pseudo first-order rate constants kobs were calculated by using the following equation: P = Vs ⋅ (1 – e^–^k^obs ⋅ ^t)/kobs, where Vs is the enzyme NCF cleavage rate in the absence of BLI.

The next assay deals with ADC-7, KPC-2, and SHV-1. Details: method as in PMID 26729491, PMID 26729496. To be noted: cited from earlier work.
The target in assay [2] is T1, KPC-2. The assay can be described thus: Stability of inhibitor after incubation with KPC-2, LC/MS. Format: biochemical. To be noted: for degradation/hydrolysis of inhibitor by KPC-2: 1 µM inhibitor and 1 µM KPC-2, 37 °C, reaction buffer, 18 hours, LC/MS.
Assay [3] has as its target T2, SME-2 (Serratia marcescens, UniProt P52682, V207Q). Put plainly: Kiapp determination with nitrocefin (method of Waley). Format: biochemical, S. marcescens. Particulars: recombinant His-tagged enzyme; 10 min incubation at 37°C; 50 μM NCF. On the procedure: (§2) The protein was mixed with various concentrations of inhibitors in 50 mM sodium phosphate (pH 7.0) and 0.1 mg/ml of bovine serum albumin buffer (reaction buffer), followed by incubation for 10 min at 37°C. Next, 50 μM nitrocefin (NCF; 10 μM for SHV-12 and 25 μM for BKC-1) was added, and substrate cleavage profiles were recorded at 490 nm every 10 s for 10 min. […] Kiapp values were calculated by method of Waley ([24]).

The target of assay [4] is T2, SME-2. Put plainly: koff of enzyme activity recovery, jump dilution method. The format is biochemical, S. marcescens. As to the method: (§3) After appropriate dilution, 100 μM NCF was added to the reaction mixture, and absorbance at 490 nm was recorded every 10 s using a plate reader. The reaction without the addition of BLI was also recorded and used to calculate uninhibited enzyme velocity Vs.
(§4) Purified enzyme at 1 μM in reaction buffer was mixed with BLIs at an 8-fold higher concentration than its stoichiometry ratio (determined in preliminary stoichiometry experiments). After 30 min incubation at 37°C, the reaction mixture was diluted from 100- to 30,000-fold depending on the enzyme in reaction buffer, and 100 μl of diluted enzyme was mixed with 100 μl of 400 μM NCF in reaction buffer. The absorbance at 490 nm was recorded every minute during 4 h at 37°C.

Assay [5] addresses T1, KPC-2. Put plainly: Kiapp determination with nitrocefin (method of Waley). The format is biochemical. To be noted: recombinant His-tagged enzyme; 10 min incubation at 37°C; 50 μM NCF. On the procedure: as §2
Assay [6] addresses T3, SHV-12 (Klebsiella pneumoniae, UniProt P0AD64, E235K/G234S/L31Q).
T3 construct: His tag; purchased Emerald Biostructures (Bainbridge Island, WA)
The assay is described as above. The format is biochemical. To be noted: recombinant His-tagged enzyme; 10 min incubation at 37°C; 10 μM NCF. As to the method: as §2

In another assay the target is OXA-23 (Acinetobacter baumannii, UniProt Q9L4P2). The assay is described as above. The format is biochemical. Particulars: recombinant His-tagged enzyme; 10 min incubation at 37°C; 50 μM NCF. On the procedure: as §2
The target of assay [7] is T4, BKC-1 (Klebsiella pneumoniae, UniProt A0A0F6QEY8). Described as above. Particulars: recombinant His-tagged enzyme; 10 min incubation at 37°C; 25 μM NCF. Format: biochemical. As to the method:
as §2

The target of assay [8] is T5, CTX-M-15 (Escherichia coli, UniProt Q9EXV5).
T5 construct: His tag; purchased Emerald Biostructures (Bainbridge Island, WA)
The description is as above. The format is biochemical. To be noted: recombinant His-tagged enzyme; 10 min incubation at 37°C; 50 μM NCF. On the procedure:
as §2

In assay [9] the target is T6, FRI-1 (Enterobacter cloacae, UniProt A0A0M5L4T8). The assay is described as above. The format is biochemical. To be noted: recombinant His-tagged enzyme; 10 min incubation at 37°C; 50 μM NCF. On the procedure: as §2
The target of assay [10] is T7, AmpC (Enterobacter cloacae, UniProt P05364).
T7 construct: His tag; purchased Emerald Biostructures (Bainbridge Island, WA)
Described as above. Format: biochemical. To be noted: recombinant His-tagged enzyme; 10 min incubation at 37°C; 50 μM NCF. As to the method: as §2

Assay [11] deals with T8, KPC-3 (Klebsiella pneumoniae, UniProt Q9F663, H272Y). The assay is described as above. Format: biochemical. To be noted: recombinant His-tagged enzyme; 10 min incubation at 37°C; 50 μM NCF. As to the method:
as §2

The next assay concerns the target T9, OXA-48 (Klebsiella pneumoniae, UniProt Q6XEC0).
T9 construct: His tag; purchased Emerald Biostructures (Bainbridge Island, WA)
The description is as above. Format: biochemical. To be noted: recombinant His-tagged enzyme; 10 min incubation at 37°C; 50 μM NCF. As to the method:
as §2

The next assay addresses T10, VIM-1 (Pseudomonas aeruginosa, UniProt A0A0F7KYQ8).
T10 construct: His tag; purchased Emerald Biostructures (Bainbridge Island, WA)
Described as above. The format is biochemical. On the procedure: as §2

The target in the next assay is T11, CTX-M-14 (Escherichia coli, UniProt Q9L5C7).
T11 construct: His tag; purchased Emerald Biostructures (Bainbridge Island, WA)
Described as above. Format: biochemical. Particulars: recombinant His-tagged enzyme; 10 min incubation at 37°C; 50 μM NCF. As to the method: as §2

The next assay deals with T12, NDM-1 (Klebsiella pneumoniae, UniProt C7C422).
T12 construct: His tag; purchased Emerald Biostructures (Bainbridge Island, WA)
The assay is described as above. The format is biochemical. On the procedure:
as §2

Another assay deals with TEM-43 (Escherichia coli, UniProt P62593, E102K/M180T/R162H). The assay can be described thus: Inactivation kinetic profile, reporter substrate method. The format is biochemical. Particulars: precluded k2/K calculation. As to the method: as §1
For assay [12], the target named is T3, SHV-12. The description is as above. The format is biochemical. Particulars: precluded k2/K calculation. As to the method:
as §1

The target in assay [13] is T1, KPC-2. The assay can be described thus: koff of enzyme activity recovery, jump dilution method. The format is biochemical. Particulars: calculated using k2/K and koff. As to the method:
as §3, §4

Assay [14] concerns the target T4, BKC-1. The description is as above. The format is biochemical. Particulars: calculated using k2/K and koff. On the procedure:
as §3, §4

Assay [15] addresses T5, CTX-M-15. Described as above. Format: biochemical. To be noted: calculated using k2/K and koff. As to the method: as §3, §4
The target of assay [16] is T6, FRI-1. Described as above. The format is biochemical. Particulars: calculated using k2/K and koff. As to the method:
as §3, §4

Assay [17] has as its target T7, AmpC. The description is as above. The format is biochemical. Particulars: calculated using k2/K and koff. As to the method: as §3, §4
In assay [18] the target is T8, KPC-3. Described as above. Format: biochemical. On the procedure: as §3, §4
The mark [19] stands for this setting: 1.2 nM KPC-2, 100 μM NCF reporter substrate.
Where [20] appears, read: recombinant His-tagged enzyme, 10 min incubation at 37°C, 50 μM NCF.

As to `O=Cc1ccccc1B(O)O` [2-formylphenylboronic acid], the “KPC-2 inactivation kinetic profile” value at KPC-2 [1] (setting [19]) is “linear KPC-2 inactivation profile”.

As to `O=C(Cc1cccs1)N[C@@H](Cn1cc(C(=O)O)nn1)B(O)O` [S02030], in the assay on ADC-7, KPC-2, and SHV-1, the “potency (in words)” value was “nanomolar potency”.

For the compound `Cc1cccc(B(O)O)c1` [m-tolylboronic acid], the “KPC-2 inactivation kinetic profile” value at KPC-2 [1] is reported as “linear KPC-2 inactivation profile”.

On to `C[C@]1(Cn2ccnn2)[C@H](C(=O)O)N2C(=O)C[C@H]2S1(=O)=O` [tazobactam, reference compound], for which, on KPC-2 [2] (same conditions, in 1 hour (data not shown)), the “degradation of inhibitor by KPC-2” value is on record as “completely degraded”. Moreover, the “KPC-2 inactivation kinetic profile” value on KPC-2 [1] (setting [19]) was “progressive enzyme activity inactivation”.

As for `O=C(O)C[C@@H]1CC[C@H](NC(=O)Cc2cccs2)B(O)O1` [vaborbactam], the “degradation/hydrolysis of inhibitor by KPC-2” value is listed as “no degradation” on KPC-2 [2] and “not hydrolyzed” at KPC-2 [2] (listed as Vaborbactam). The Ki on SME-2 [3] stood at 42 ± 5 nM; on KPC-2 [5], 56 ± 15 nM; on SHV-12 [6] it was 21 ± 4 nM; at OXA-23, 66000 ± 11000 nM; at BKC-1 [7] it was 18 ± 2 nM; at CTX-M-15 [8], 30 ± 4 nM. In addition, the Ki on FRI-1 [9] was 170 ± 60 nM; on AmpC [10] it was 35 ± 15 nM; at KPC-3 [11] it was 50 ± 16 nM; on OXA-48, 14000 ± 5000 nM; on VIM-1 (setting [20]), over 160000 nM; at CTX-M-14 it was 33 ± 13 nM. In addition, on NDM-1 (setting [20]), the Ki is over 160000 nM. The Kd at SME-2 [4] was 47 nM; on KPC-2 [13], 7.8 nM; at BKC-1 [14], 33 nM; on CTX-M-15 [15], 40 nM; on FRI-1 [16], 509 nM; on AmpC [17], 220 nM. For the same compound, the Kd at KPC-3 [18] is 4.4 nM. At KPC-2 [1] (setting [19]), the “KPC-2 inactivation kinetic profile” value was “slow onset of inhibition and nonlinear reaction profiles”. Further, the “inhibition of enzyme (in words)” value on VIM-1 (class B metalloenzyme) and at NDM-1 (class B metalloenzyme) was “No inhibition” each time. For the same compound, the inactivation kinetic profile entry at TEM-43 and on SHV-12 [12] was “linear inactivation profiles” throughout.

By Kd is commonly meant the free concentration of one partner at which half of the binding sites on the other are occupied at equilibrium, for simple one-to-one binding.
